Measurements taken from ChEMBL document CHEMBL1138906, “Development of sulfonamide compounds as potent methionine aminopeptidase type II inhibitors with antiproliferative properties” (Bioorg Med Chem Lett, 2006).

Legend:
HMEC = experiment: cells; conditions: Homo sapiens
Description: Antiproliferative activity against HMVEC

[1] = Protein binding in rat plasma at 10 uM at pH 7.4; format: ADME, cell-free; conditions: read-out: PPB (converted)
[2] = Inhibition of AP; set-up: species or system Homo sapiens
[3] = biological target: Methionine aminopeptidase (Pyrococcus furiosus (strain ATCC 43587 / DSM 3638 / JCM 8422 / Vc1), UniProt P56218); experiment: Inhibition of Pyrococcus furiosus MetAP
[4] = biological target: T1, Methionine aminopeptidase 2 (Homo sapiens, UniProt P50579); experiment: Inhibition of MetAP2
Aminopeptidase N = Aminopeptidase N (Homo sapiens, UniProt P15144); experiment: Inhibition of AP-M
Xaa-Pro aminopeptidase 1 = Xaa-Pro aminopeptidase 1 (Homo sapiens, UniProt Q9NQW7); experiment: Inhibition of AP1
[5] = biological target: Methionine aminopeptidase 1 (Homo sapiens, UniProt P53582); experiment: Inhibition of MetAP1
[6] = biological target: T1, Methionine aminopeptidase 2; experiment: Inhibition of MetAP2 in presence of 40 mg/ml human serum albumin

T1 sequence (P50579 whole entry): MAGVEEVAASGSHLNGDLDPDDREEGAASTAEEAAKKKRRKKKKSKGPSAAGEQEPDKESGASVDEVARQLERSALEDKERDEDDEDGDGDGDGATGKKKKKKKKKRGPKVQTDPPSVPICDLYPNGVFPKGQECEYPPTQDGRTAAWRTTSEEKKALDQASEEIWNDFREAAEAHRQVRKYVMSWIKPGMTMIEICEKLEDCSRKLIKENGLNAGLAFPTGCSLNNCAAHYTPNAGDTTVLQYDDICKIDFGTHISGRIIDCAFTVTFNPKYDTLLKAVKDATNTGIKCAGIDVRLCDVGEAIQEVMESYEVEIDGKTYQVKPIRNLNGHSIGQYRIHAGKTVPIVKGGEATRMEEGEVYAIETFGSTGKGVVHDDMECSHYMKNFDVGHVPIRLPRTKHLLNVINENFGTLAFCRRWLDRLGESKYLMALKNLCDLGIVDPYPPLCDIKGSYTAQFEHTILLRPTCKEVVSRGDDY
Chain of Aminopeptidase N (P15144 whole entry): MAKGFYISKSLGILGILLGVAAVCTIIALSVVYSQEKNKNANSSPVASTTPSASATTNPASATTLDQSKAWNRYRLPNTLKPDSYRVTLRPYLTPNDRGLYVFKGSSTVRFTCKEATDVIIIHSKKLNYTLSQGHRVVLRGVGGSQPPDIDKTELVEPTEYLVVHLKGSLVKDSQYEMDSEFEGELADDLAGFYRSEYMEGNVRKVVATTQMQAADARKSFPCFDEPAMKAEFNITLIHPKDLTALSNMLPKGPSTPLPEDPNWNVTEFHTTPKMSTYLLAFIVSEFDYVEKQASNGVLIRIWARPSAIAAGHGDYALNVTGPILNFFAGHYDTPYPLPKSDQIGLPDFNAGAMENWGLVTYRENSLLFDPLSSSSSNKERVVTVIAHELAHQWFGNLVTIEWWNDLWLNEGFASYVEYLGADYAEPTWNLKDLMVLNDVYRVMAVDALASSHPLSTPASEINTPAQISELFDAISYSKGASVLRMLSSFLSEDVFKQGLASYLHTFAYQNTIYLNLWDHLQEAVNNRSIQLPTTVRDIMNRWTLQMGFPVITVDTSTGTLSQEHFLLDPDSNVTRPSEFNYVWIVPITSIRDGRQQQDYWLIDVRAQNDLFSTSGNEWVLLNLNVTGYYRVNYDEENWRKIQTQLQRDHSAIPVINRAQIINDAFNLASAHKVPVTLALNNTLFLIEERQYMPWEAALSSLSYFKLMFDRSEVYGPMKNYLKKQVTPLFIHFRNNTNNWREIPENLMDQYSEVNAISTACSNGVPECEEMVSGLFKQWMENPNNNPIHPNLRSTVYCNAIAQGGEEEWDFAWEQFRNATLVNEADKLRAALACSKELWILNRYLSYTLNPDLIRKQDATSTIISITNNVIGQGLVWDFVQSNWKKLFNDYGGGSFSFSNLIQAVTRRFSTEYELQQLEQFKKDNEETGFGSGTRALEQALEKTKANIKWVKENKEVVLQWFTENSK
Chain of Xaa-Pro aminopeptidase 1 (Q9NQW7 whole entry): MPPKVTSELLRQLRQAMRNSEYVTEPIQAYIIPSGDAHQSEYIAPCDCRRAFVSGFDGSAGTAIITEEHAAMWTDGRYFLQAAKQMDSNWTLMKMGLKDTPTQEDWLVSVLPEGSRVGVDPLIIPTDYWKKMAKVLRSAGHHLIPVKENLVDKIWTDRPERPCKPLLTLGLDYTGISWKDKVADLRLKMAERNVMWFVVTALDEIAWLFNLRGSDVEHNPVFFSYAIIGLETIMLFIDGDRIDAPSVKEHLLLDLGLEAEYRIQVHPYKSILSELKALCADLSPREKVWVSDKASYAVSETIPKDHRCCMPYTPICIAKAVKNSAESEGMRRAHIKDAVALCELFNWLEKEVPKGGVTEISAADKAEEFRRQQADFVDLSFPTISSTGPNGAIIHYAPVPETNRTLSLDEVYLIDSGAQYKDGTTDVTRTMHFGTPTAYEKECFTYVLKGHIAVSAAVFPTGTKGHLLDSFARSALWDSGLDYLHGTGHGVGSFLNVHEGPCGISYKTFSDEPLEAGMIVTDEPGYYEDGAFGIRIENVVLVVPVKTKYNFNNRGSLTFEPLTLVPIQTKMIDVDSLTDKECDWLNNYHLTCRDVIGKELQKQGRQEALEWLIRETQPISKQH
Chain of Methionine aminopeptidase (P56218 whole entry): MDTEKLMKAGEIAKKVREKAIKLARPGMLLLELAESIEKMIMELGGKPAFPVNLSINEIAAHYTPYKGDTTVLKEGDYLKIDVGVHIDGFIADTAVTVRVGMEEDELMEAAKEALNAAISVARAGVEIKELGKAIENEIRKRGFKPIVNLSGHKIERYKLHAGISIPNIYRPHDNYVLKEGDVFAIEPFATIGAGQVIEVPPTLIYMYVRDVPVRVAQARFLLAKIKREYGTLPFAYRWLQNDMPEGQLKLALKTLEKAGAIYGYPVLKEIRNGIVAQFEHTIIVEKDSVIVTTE

IC50 (HMEC) [nM] | fraction unbound at 10 µM [1] | also measured | SMILES
60000 |  |  | CCCc1ccc(NS(=O)(=O)c2ccccc2)c(C(=O)O)c1
400 |  |  | Cc1cc(C)c(NS(=O)(=O)c2ccccc2)c(C(=O)O)c1
300 | 0.019 |  | Cc1ccc(NS(=O)(=O)c2ccc(Cl)cc2)c(C(=O)O)c1
130 |  |  | C[C@H]1CCCc2ccc(NS(=O)(=O)c3ccc(F)cc3)c(C(=O)O)c21
500 | 0.008 |  | O=C(O)c1c(NS(=O)(=O)c2ccc(F)cc2)ccc2ccccc12
3000 |  |  | O=C(O)c1cc(Br)ccc1NS(=O)(=O)c1ccc(Cl)cc1
150 |  |  | CC1=CCCc2ccc(NS(=O)(=O)c3ccc(F)cc3)c(C(=O)O)c21
10000 | 0.002 |  | CCc1ccc(NS(=O)(=O)c2ccccc2)c(C(=O)O)c1
500 | 0.002 | IC50 [2]: > 100000 nM; IC50 [3]: > 100000 nM; IC50 [4]: 19 nM; IC50 (Aminopeptidase N): > 100000 nM; IC50 (Xaa-Pro aminopeptidase 1): > 100000 nM; IC50 [5]: 47000 nM; IC50 [6]: 3800 nM | O=C(O)c1c(NS(=O)(=O)c2ccccc2)ccc2ccccc12
2000 |  | IC50 [4]: 3900 nM; IC50 [6]: > 100000 nM | O=C(O)c1cc(Br)ccc1NS(=O)(=O)c1cccc2nsnc12
100 | 0.003 |  | Cc1ccc(NS(=O)(=O)c2ccccc2)c(C(=O)O)c1
180 |  |  | O=C(O)c1c(NS(=O)(=O)c2ccc(F)cc2)ccc2c1CCCC2
100000 |  |  | CCCCc1ccc(NS(=O)(=O)c2ccccc2)c(C(=O)O)c1
